Data published in ChEMBL document CHEMBL3526000 (Drug Metab Dispos, 2012).

Key:
[1] = molecular target: T1, UDP-glucuronosyltransferase 1A6 (Homo sapiens, UniProt P19224); experiment: Drug metabolism assessed as recombinant human UGT1A6 assessed as N-glucuronidation at 100 uM incubated for 60 mins by LC-MS/MS analysis; format: ADME; details: recombinant enzyme, 1 h
T1 sequence (P19224 whole entry): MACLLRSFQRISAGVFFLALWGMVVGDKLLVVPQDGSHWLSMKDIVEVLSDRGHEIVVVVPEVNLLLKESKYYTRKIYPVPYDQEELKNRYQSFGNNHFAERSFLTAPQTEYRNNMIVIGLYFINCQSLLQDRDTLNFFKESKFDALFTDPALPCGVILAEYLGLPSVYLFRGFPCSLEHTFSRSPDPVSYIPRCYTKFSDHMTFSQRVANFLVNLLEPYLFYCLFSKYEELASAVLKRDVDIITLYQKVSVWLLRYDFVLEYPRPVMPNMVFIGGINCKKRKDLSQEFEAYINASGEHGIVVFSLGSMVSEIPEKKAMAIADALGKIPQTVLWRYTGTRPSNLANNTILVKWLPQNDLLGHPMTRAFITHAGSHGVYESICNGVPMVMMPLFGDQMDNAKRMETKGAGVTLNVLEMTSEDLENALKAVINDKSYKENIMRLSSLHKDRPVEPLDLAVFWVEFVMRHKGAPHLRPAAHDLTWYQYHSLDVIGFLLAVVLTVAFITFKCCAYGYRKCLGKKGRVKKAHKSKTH

[2] = molecular target: T2, UDP-glucuronosyltransferase 1A1 (Homo sapiens, UniProt P22309); experiment: Drug metabolism assessed as recombinant human UGT1A1 assessed as O-glucuronidation at 100 uM incubated for 60 mins by LC-MS/MS analysis; format: ADME; details: recombinant enzyme, 1 h
T2 sequence (P22309 whole entry): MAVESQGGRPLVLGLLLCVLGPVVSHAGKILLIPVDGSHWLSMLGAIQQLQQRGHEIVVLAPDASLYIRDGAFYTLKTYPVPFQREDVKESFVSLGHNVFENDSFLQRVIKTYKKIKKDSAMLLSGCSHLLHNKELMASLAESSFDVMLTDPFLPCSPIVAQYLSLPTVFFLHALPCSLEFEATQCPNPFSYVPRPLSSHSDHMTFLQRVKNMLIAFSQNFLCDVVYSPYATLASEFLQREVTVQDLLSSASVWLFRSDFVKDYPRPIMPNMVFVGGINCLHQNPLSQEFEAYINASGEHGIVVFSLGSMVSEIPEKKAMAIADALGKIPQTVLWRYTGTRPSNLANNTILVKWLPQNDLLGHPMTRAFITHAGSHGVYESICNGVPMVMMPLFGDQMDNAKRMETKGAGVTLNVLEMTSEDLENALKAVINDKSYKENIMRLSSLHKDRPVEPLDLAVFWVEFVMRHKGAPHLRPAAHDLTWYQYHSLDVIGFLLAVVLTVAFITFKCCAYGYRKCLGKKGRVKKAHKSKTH

[3] = molecular target: T3, UDP-glucuronosyltransferase 1A3 (Homo sapiens, UniProt P35503); experiment: Drug metabolism assessed as recombinant human UGT1A3 assessed as N-glucuronidation at 100 uM incubated for 60 mins by LC-MS/MS analysis; format: ADME; details: recombinant enzyme, 1 h
T3 sequence (P35503 whole entry): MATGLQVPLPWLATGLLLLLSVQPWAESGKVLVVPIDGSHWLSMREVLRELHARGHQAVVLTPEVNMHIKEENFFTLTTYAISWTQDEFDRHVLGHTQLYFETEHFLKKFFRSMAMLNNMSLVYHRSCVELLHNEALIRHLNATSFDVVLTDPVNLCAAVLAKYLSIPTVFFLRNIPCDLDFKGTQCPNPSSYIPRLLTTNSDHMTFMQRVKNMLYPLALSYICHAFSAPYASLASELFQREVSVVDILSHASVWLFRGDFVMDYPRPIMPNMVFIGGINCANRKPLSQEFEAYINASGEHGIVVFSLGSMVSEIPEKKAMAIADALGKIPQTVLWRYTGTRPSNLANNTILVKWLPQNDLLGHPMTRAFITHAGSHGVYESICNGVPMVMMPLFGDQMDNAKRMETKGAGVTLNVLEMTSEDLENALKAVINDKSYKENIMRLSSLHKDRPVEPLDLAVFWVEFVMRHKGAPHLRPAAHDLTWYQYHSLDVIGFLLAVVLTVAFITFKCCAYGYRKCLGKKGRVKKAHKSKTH

[4] = molecular target: T4, UGT2B7 (Homo sapiens, UniProt P16662); experiment: Drug metabolism assessed as recombinant human UGT2B7 assessed as O-glucuronidation at 10 to 400 uM incubated for 60 mins by LC-MS/MS analysis
T4 sequence (P16662 whole entry): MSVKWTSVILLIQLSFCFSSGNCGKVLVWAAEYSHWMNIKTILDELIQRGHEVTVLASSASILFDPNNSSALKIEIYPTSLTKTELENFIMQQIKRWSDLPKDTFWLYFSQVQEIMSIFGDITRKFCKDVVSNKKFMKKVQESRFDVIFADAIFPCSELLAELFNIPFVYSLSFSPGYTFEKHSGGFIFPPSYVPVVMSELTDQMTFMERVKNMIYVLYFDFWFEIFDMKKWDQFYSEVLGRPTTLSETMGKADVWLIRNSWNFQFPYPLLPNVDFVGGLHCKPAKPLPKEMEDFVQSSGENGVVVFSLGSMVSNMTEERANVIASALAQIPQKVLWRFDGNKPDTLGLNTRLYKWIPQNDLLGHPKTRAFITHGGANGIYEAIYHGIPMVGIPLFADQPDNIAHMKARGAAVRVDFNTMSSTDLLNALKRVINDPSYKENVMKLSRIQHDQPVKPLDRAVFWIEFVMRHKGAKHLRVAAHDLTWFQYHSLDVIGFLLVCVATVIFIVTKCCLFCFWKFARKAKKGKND

[5] = molecular target: T5, UDP-glucuronosyltransferase 1A7 (Homo sapiens, UniProt Q9HAW7); experiment: Drug metabolism assessed as recombinant human UGT1A7 assessed as O-glucuronidation at 100 uM incubated for 60 mins by LC-MS/MS analysis; format: ADME; details: recombinant enzyme, 1 h
T5 sequence (Q9HAW7 whole entry): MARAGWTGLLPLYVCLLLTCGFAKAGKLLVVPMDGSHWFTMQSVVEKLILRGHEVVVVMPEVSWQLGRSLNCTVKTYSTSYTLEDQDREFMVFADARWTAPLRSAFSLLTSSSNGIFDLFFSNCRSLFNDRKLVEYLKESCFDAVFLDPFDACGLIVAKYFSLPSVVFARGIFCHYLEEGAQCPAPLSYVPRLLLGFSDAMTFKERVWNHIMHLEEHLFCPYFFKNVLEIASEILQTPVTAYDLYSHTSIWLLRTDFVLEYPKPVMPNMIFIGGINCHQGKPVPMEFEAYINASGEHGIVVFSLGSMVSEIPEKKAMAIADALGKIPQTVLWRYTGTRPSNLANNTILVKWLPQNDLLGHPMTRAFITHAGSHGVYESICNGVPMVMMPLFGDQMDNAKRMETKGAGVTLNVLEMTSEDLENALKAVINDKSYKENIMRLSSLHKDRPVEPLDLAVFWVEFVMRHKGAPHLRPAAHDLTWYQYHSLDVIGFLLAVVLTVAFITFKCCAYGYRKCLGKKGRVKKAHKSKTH

Drug metabolism [1]: metabolite_not_detected
Drug metabolism [2]: metabolite_not_detected
Drug metabolism [3]: metabolite_not_detected
Km at 1 h, 400 µM [4]: 45 µM
Drug metabolism [5]: metabolite_not_detected
SMILES: O=C(CCCN1CCC(O)(c2ccc(Cl)cc2)CC1)c1ccc(F)cc1 [HALOPERIDOL]
